In US20080299123A1, “TREATMENT OF CHEMOTHERAPY- OR RADIOTHERAPY-RESISTANT TUMORS” (Deutsches Krebsforschungszentrum Stiftung des offentlichen …, priority 2006, published 2008):

Columns and labels:
[1] = system: ERK phosphorylation; assay: ERK phosphorylation in SKOV3ip cells; type: cell-based, human; conditions: treatment with DAPT, TAPI-0
Method: (A) Analysis of L1-32 cleavage by γ-secretase. Cells were treated for 48 h at 37° C. with presenilin inhibitor IX (DAPT) or for control with DMSO. Isolated membranes were incubated for 2 h at 37° C. and then separated into pellet or supernatant (SN) fractions by ultracentrifugation. Lanes 1 to 2 show cells treated with DMSO (vehicle). Lanes 3 and 4 show cells preincubated with DAPT. (B) SKOV3ip cells were treated with DAPT either in the presence or absence of the metalloprotease inhibitor TAPI-0 for 24 hr. Cells were lysed in BOG lysis buffer and analyzed by Western blot analysis. The cell supernatant was analyzed for soluble L1 using mAb L1-11A and the cell lysate was examined for L1-32 using peytL1. (C) HEK293 or HEK293-hL1wt cells were treated with DMSO, DAPT, TAPI-0 or both inhibitors for 96 h. mRNA was transcribed to cDNA and analyzed by qPCR for the genes CRABPII and cathepsin B. (D) Analysis of ERK phosphorylation in SKOV3ip cells after treatment with the indicated compounds.
(A) Effect of L1-antibodies on ERK phosphorylation in SKOV3ip cells. The cells were incubated for 24 hr at 37° C. with the indicated purified antibodies to L1 (10 μg/ml) or isotype control IgG. […] Soluble L1 in the supernant and L1-32 in the cell lysate were analyzed by Western blot. (C) mRNA was isolated from antibody treated SKOV3ip cells, transcribed to cDNA and analyzed by qPCR for the indicated genes. […]

[2] = system: L1CAM transfected PT45-P1 cells; assay: Caspase-3/-7 assay in L1CAM transfected PT45-P1 cells; type: cell-based, human; conditions: inhibitor 10 μmol/L, 20 μg/mL etoposide 24 hours
Method: PT45-P1res cells (a,b) or PT45-P1 cells transfected with L1CAM or an empty control vector (mock) (c,d) were left untreated (w/o) or were either treated with Tapi-0, Tapi-1, GM6001 or L685,458 (each 10 μmol/L) for 24 hours. (a,c) Cellular lysates were subjected to western blotting using either the antibody clone UJ127 from Acris detecting only full-length L1CAM or the pcytL1 antibody detecting also the cytoplasmic part of L1CAM. HSP90 was detected as a control for equal protein load. (b,d) Thirty minutes after treatment with the respective inhibitor, cells were either left untreated or treated with 20 μg/mL etoposide for 24 hours. Then, cells were analysed for caspase-3/-7 activity expressed as n-fold induction of caspase-3/-7 activity of basal. Means±SD from three independent experiments are shown. * indicates p<0.05.
As described elsewhere (Sebens Müerköster et al., 2006), apoptosis was determined by staining with annexinV/propidium iodide (Biocarta, Hamburg, Germany) and subsequent fluorescence flow cytometry (GalaxyArgon Plus; DAKO Cytomation, Hamburg, Germany) using the FLOMAX software, and by the detection of caspase-3/-7 activity using a homogeneous luminescent assay (Promega, Mannheim, Germany). All samples were measured in duplicates.
For L1CAM transfection, PT45-P1 cells were seeded into 6 well plates (2×10^5 cells/well), were grown overnight, followed by transfection with 5 μL/well DIMRIE reagent (Invitrogen) and 0.6 μg/well of the following plasmids: pcDNA3.1 (mock) or pcDNA3.1-L1CAM (L1CAM). Upon transfection for 18 hours, 1 mL medium containing 20% FCS was added and cells were left untreated or were treated as indicated for further 24 hours. For knock down of L1CAM, PT45-P1res cells were seeded into 12 well plates (1×10^5 cells/well), were grown overnight followed by transfection with 12 μL/well RNAiFect reagent (Invitrogen) and 2 μg/well of either Stealth negative control siRNA (Invitrogen) or Stealth L1CAM siRNA (Invitrogen). After overnight transfection, cells were either left untreated or treated as indicated for further 24 hours.

## CC(C)C[C@H](CC(=O)NO)C(=O)N[C@@H](Cc1ccc2ccccc2c1)C(=O)N[C@@H](C)C(N)=O [TAPI-0]
[1]
  ERK activation in treated cells: did not interfere with ERK activation
[2]
  apoptosis inducing effect of etoposide (caspase-3/-7): nor affect the apoptosis inducing effect of etoposide
